Blank lines part the entries; values can stand above or below the compound they belong to.
Assays:
winter oilseed rape = assay: Field experiment, winter oilseed rape, foliar spray; assay type: in vivo; conditions: 25 μM foliar spray, BBCH 50
Description: (§1) All field experiments were done according to criteria for Good Experimental Practices. Six repetitions (10 m^2 each) were used per one variant. Field trials were not treated by growth regulators and fungicides, except of applied compound 1-furfuryl-[1,2,3]thiadiazol-5-yl-urea. N-furfuryl-N′-1,2,3-thiadiazol-5-yl-urea was applied once at the precise time (extension growth BBCH 50), by foliar spray at a concentration of 25 μM. For each variant at least 50 plants were used to obtain morphology parameters. Statistical evaluation was executed in stat. program PAST v. 2.17c.

spring barley = assay: Field experiments, spring barley, years 2014 and 2015, foliar spray; assay type: in vivo
Description: as §1
All field experiments were done according to criteria for Good Experimental Practices as described in example 17. N-furfuryl-N′-1,2,3-thiadiazol-5-yl-urea was applied once at the precise time (extension growth BBCH 50), by foliar spray at a concentration of 25 μM in a year 2014 and at a concentration of 5 μM in a year 2015. For each variant at least 50 plants were used to obtain morphology parameters. Statistical evaluation was executed in stat. program PAST v. 2.17c.

wheat leaves = assay: Ethylene production (defoliating activity) assay; design: species or system Triticum aestivum; conditions: 10 μM, 96 h in the dark at 25° C.; control 270 (±15)
Description: We investigated the effect of the compounds of the invention on ethylene production in wheat leaves. The leaves were obtained as described in Example 8, placed in 5 mL glass vials and immersed at 10 μM solutions of tested compounds of the invention or TDZ. Distilled water was used as a control treatment. After 96 h incubation in the dark at 25° C., 1 mL of air was taken from the vials and content of ethylene in it was determined using gas chromatography with the flame ionization detector (GC-FID) method described by Fišerová et al. (Fišerová H, Kula E, Klemš M, Reinöhl V (2001) Phytohormones as indicators of the degree of damage in birch (Betula pendula). Biológia 56: 405-409).

[1] = test system: detached leaf segments of Triticum aestivum cv. Hereward; assay: Senescence bioassay on wheat leaf segments in dark/light conditions; conditions: foliar, 168 h, dark/light 8/16, 22° C., 7 days, read-out: Senescence bioassay (IC50)
Description: (§2) Seeds of winter wheat, Triticum aestivum cv. Hereward, were washed under running water for 24 hours and then sown on perlite soaked with Hogland's solution. They were placed in the growth chamber at 25° C. with a 16/8 h light period at 50 μmol·m^−2·s^−1. After 7 days, the first leaf was fully developed and the second leaf had started to grow. A tip section of the first leaf, approximately 4 cm long, was removed from 4 seedlings and trimmed slightly to a combined weight of 100 mg. The basal ends of the four leaf tips were placed into the 96-wells plate containing 150 μL of the tested derivative solution each. The entire plate was inserted into a plastic box lined with paper tissues soaked in distilled water to prevent leaf sections from drying out. After 96 h incubation in the dark at 25° C., the leaves were removed and chlorophyll extracted by heating at 80° C. for 10 min in 5 mL of 80% ethanol (v/v). The sample volume was then restored to 5 mL by the addition of 80% ethanol (v/v). The absorbance of the extract was recorded at 665 nm. In addition, chlorophyll extracts from fresh leaves and leaf tips incubated in deionised water were measured. The results are means of five replicates and the entire test was repeated at least twice. […] The compounds to be tested were dissolved in dimethylsulfoxide (DMSO) and the solution brought up to 10^−3 M with distilled water. […] The IC50 values were determined for standard (BAP) and novel tested compounds.
The ability of the novel compounds to retard chlorophyll degradation in detached wheat leaves was tested also in the light conditions. The experiment was performed as described in Example 7 with modifications as follows—the incubation of the leaves with the compounds was done in the dark/light conditions 8/16 (light—100 μmol·m^−2·s^−1) at 22° C. for 7 days. […] The newly prepared substituted 1,2,3-thiadiazol-5-yl urea derivatives of the invention are much stronger anti-senescent compounds in comparison to the BAP in retarding senescence under optimal (dark/light) conditions.

[2] = test system: detached leaves of Triticum aestivum cv. Hereward; assay: Membrane lipid peroxidation (MDA, TBA method) in detached wheat leaves in the dark; conditions: four days in the dark
Description: A typical symptom associated with senescence as a direct consequence of increased reactive oxygen species is membrane lipid peroxidation which produces malondialdehyde (MDA). Therefore the levels of MDA, a decomposition product of lipid peroxidation, were measured in detached wheat leaves that were exposed to the prepared novel derivatives or BAP for four days in the dark as described in Example 7. MDA levels were measured using a thiobarbituric acid (TBA) method. In detail, 100 mg of fresh plant material was homogenized by high speed shaking in a ball mill (MM301, Retsch, Germany) with 1 mL of 70% methanol. The crude extract was centrifuged at 10,000×g for 5 min, and 100 μL aliquot of supernatant was vortexed with 100 μL of 0.5% (w/v) TBA containing 0.1% (w/v) trichloroacetic acid, and the resulting solution was then incubated for 30 min at 95° C. The samples were quickly cooled on ice and centrifuged for 5 min at 1000 g. The absorbance of supernatant was measured at 532 nm with background subtraction at 600 nm and the amount of MDA-TBA complex was calculated from the coefficient of absorbance 155 mM^−1 cm^−1.

[3] = test system: detached leaf segments of Triticum aestivum cv. Hereward; assay: Senescence bioassay on wheat leaf segments in dark conditions; conditions: Triticum aestivum, foliar; dark, 96 h, 25° C., chlorophyll absorbance 665 nm; read-out: Senescence bioassay (IC50)
Description: as §2

[4] = test system: Arabidopsis thaliana (wild-type Col-0); assay: Root growth and lateral root formation of Arabidopsis; assay type: in vivo; conditions: 10 nM, two weeks after transfer
Description: To investigate in vivo effect of the new derivatives on the root growth and development, seeds of Arabidopsis thaliana (wild-type Col-0) were surface sterilized and sown on vertical plates on half-strength Murashige-Skoog medium (supplied with 0.1% sucrose and 6 g/L phytagel) containing 10 nM BAP or 10 nM 1,2,3-thiadiazol-5-yl-urea derivative, or 0.01% DMSO (solvent control). After vernalization (4 days in the dark, 4° C.) plates were transferred into the growth chamber (22° C., 16/8 light/dark). Two weeks after transfer, seedlings were photographed and root elongation and lateral root formation was scored using Scion image software (Scion Corp., Frederick, Md., USA). At least 40 plants were measured for each treatment.

[5] = Toxicity towards human skin fibroblasts (Calcein AM assay); assay type: cell-based
Description: Cytotoxicity of the compounds to human skin fibroblasts (BJ cell line) was determined in a standard Calceinovém AM test. Cells were maintained in plastic tissue culture flasks and grown in Dulbecco's modified Eagle's medium for cell culture (DMEM) at 37° C. in 5% CO2 and 100% humidity. Cells were placed into 96-well microtiter plates (Nunc, Denmark) and after 12 hours pre-incubation, the tested compound was added to a final concentration ranging from […]. Cells were incubated for 72 hours. At the end of incubation period Calcein AM was added in PBS to a final concentration of […]. After 1 hour of incubation fluorescence was measured at 485/538 nm (ex/em wavelength) using Fluoroskan Ascent (Labsystems, Finland). IC50 values (the concentration causing reduction of calcein AM conversion to 50%) were calculated from the curves obtained. All experiments were repeated four times with a maximum deviation of 15%. Due to the limited solubility of substances in water, all the tested compounds were dissolved in DMSO and diluted with water to a final concentration.

SMILES: O=C(NCc1ccco1)Nc1cnns1 [N-furfuryl-N′-1,2,3-thiadiazol-5-yl-urea]
Seed yield, % of control (winter oilseed rape): 120.9% | WTK, % of control (winter oilseed rape): 110% | Seed yield, % of control (spring barley; Year 2014, 25 μM foliar spray): 104.8% | grains per ear, % of control (spring barley; Year 2014, 25 μM foliar spray): 104.6% | Seed yield, % of control (spring barley; Year 2015, 5 μM foliar spray): 106.8%

IC50 [1]: 0.4 µM | IC50 [3]: 11.4 µM
SMILES: COCCCNC(=O)Nc1cnns1 [Compound 7, 1-(3-methoxy-propyl)-3-[1,2,3]thiadiazol-5-yl-urea]
Ethylene produced (wheat leaves): 312 (±18) nL/g FW | MDA [2]: 14.4 (±0.8) nmol/g FW | Lateral root number [4]: 14 (±10) | Primary root lenght [4]: 40 (±10) mm | CC50 at 72 h [5]: > 100 µM

Reference: US9993002B2, “1,2,3-thiadiazol-5yl-urea derivatives, use thereof for regulating plant senescence and preparations containing these derivatives” (USTAV EXPERIMENTALNI BOTANIKY AV CR, V.V.I., priority 2014, dated 2018)
